Reference: US20260248784A1, “BTK Degrader and Use Thereof” (JIANGSU VCARE PHARMATECH CO., LTD., priority 2023, published 2026)

test system: mino cells; experiment: Activity test in Mino cells (CCK8 proliferation inhibition); assay type: cell-based; conditions: 3 days, read-out: Cell inhibition IC50
Protocol: Cell culture: mino cells (culture conditions: RPMI1640 medium+15% FBS, 37° C., 5% CO2). Cell plating: The cells subcultured into the logarithmic growth phase were collected and transferred into a centrifuge tube, and centrifuged at 800 rpm for 5 min. The cells were resuspended in complete medium and counted. The cells were diluted and adjusted to a final concentration of 200000 cells/mL. The cells were then seeded into a 96-well plate with 100 μL per well. Cell administration: Each group of drug solutions was added into the 96-well plate, 100 μL per well, n=3 for each drug concentration. Meanwhile, negative wells (n=6) and blank wells (n=3) were set up. The 96-well plate was incubated in the incubator for further 3 days. CCK8 reagent was added to the 96-well plate, 20 μL per well, and then the plate was placed in the incubator for further 4 h. The absorbance of the solution was measured at a wavelength of 450 nm using an enzyme reader. The proliferation inhibition rate was calculated and the half inhibitory concentration IC50 value was calculated.

Compound	IC50 [nM]
COc1ccc(F)cc1C(=O)NCc1ccc(-c2nn(-c3ccc(N4CCN(CC5CCN(c6ccc(N7CCC(=O)NC7=O)c(C)c6)CC5)CC4)nc3)c3ncnc(N)c23)cc1C [Compound I-4]	62

same assay, conditions: Homo sapiens, 72 h, 3 days, read-out: Cell inhibition IC50

Compound	IC50 [nM]
COc1ccc(F)cc1C(=O)NCc1ccc(-c2nn(-c3ccc(N4CCN(CC5CCN(c6ccc(N7CCC(=O)NC7=O)cc6)CC5)CC4)nc3)c3ncnc(N)c23)cc1 [Compound I-3, N-(4-(4-amino-1-(6-(4-((1-(4-(2,4-dioxotetrahydropyrimidin-1(2H)-yl)phenyl)piperidin-4-yl)methyl)piperazin-1-yl)pyridin-3-yl)-1H-pyrazolo[3,4-d]pyrimidin-3-yl)benzyl)-5-fluoro-2-methoxybenzamide]	16
COc1ccc(F)cc1C(=O)NCc1ccc(-c2nn(-c3ccc(C4CCN(CC5CCN(c6ccc(N7CCC(=O)NC7=O)c(C)c6)CC5)CC4)cc3)c3ncnc(N)c23)cc1 [Compound I-5, N-(4-(4-amino-1-(4-(1-((1-(4-(2,4-dioxotetrahydropyrimidin-1(2H)-yl)-3-methylphenyl)piperidin-4-yl)methyl)piperidinyl)phenyl)-1H-pyrazolo[3,4-d]pyrimidin-3-yl)benzyl)-5-fluoro-2-methoxybenzamide]	84
COc1ccc(F)cc1C(=O)NCc1ccc(-c2nn(-c3ccc(C4CCN(CC5CCN(c6ccc(N7CCC(=O)NC7=O)cc6)CC5)CC4)cc3)c3ncnc(N)c23)cc1 [Compound I-6, N-(4-(4-amino-1-(4-(1-((1-(4-(2,4-dioxotetrahydropyrimidin-1(2H)-yl)phenyl)piperidin-4-yl)methyl)piperidinyl)phenyl)-1H-pyrazolo[3,4-d]pyrimidin-3-yl)benzyl)-5-fluoro-2-methoxybenzamide]	16
COc1ccc(F)cc1C(=O)NCc1ccc(-c2nn(-c3ccc(C4CCN(CC5CCN(c6ccc(N7CCC(=O)NC7=O)c(C)c6)CC5)CC4)nc3)c3ncnc(N)c23)cc1 [Compound I-7, N-(4-(4-amino-1-(6-(1-((1-(4-(2,4-dioxotetrahydropyrimidin-1(2H)-yl)-3-methylphenyl)piperidin-4-yl)methyl)piperidin-4-yl)pyridin-3-yl)-1H-pyrazolo[3,4-d]pyrimidin-3-yl)benzyl)-5-fluoro-2-methoxybenzamide]	< 50
COc1ccc(F)cc1C(=O)NCc1ccc(-c2nn(-c3ccc(N4CCN(CC5CCN(c6ccc(N7CCC(=O)NC7=O)c(C)c6)CC5)CC4)cc3)c(N)c2C(N)=O)cc1 [Compound I-8]	< 25
COc1ccc(F)cc1C(=O)NCc1ccc(-c2nn(-c3ccc(N4CCN(CC5CCN(c6ccc(N7CCC(=O)NC7=O)c(C)c6)CC5)CC4)cc3)c3ncnc(N)c23)cc1 [Compound I-9]	< 25
COc1ccc(F)cc1C(=O)NCc1ccc(-c2nn(-c3ccc(C4CCN(CC5CCN(c6ccc(N7CCC(=O)NC7=O)c(C)c6)CC5)CC4)cc3)c(N)c2C(N)=O)cc1 [Compound I-11, 5-amino-1-(4-(1-(1-(4-(2,4-dioxotetrahydropyrimidin-1(2H)-yl)-3-methylphenyl)piperidin-4-yl)methyl)piperidin-4-yl)phenyl)-3-(4-(((5-fluoro-2-methoxybenzamido)methyl)phenyl)-1H-pyrazole-4-carboxamide]	< 25
COc1ccc(F)cc1C(=O)NCc1ccc(-c2nn(-c3ccc(C4CCN(CC5CCN(c6ccc(N7CCC(=O)NC7=O)c(C)c6)CC5)CC4)nc3)c(N)c2C(N)=O)cc1 [Compound I-12]	< 25
COc1ccc(F)cc1C(=O)NCc1ccc(-c2nn(-c3ccc(C4CCN(CC5CCN(c6ccc(C7CCC(=O)NC7=O)cc6)CC5)CC4)nc3)c3ncnc(N)c23)cc1 (stereo not drawn) [Compound I-24]	< 100
COc1ccc(F)cc1C(=O)NCc1ccc(-c2nc(-c3ccc(N4CCN(CC5CCN(c6ccc(N7CCC(=O)NC7=O)c(C)c6)CC5)CC4)nc3)n3ccnc(N)c23)cc1 [Compound I-30]	< 50
COc1ccc(F)cc1C(=O)NCc1ccc(-c2nn(-c3ccc(N4CCN(CC5CCN(c6ccc(N7CCC(=O)NC7=O)c(C)c6)CC5)C[C@H]4C)nc3)c3ncnc(N)c23)cc1 [Compound I-41]	< 25
COc1ccc(F)cc1C(=O)NCc1ccc(-c2nn(-c3ccc(N4CCC(CN5CCN(c6ccc(N7CCC(=O)NC7=O)c(C)c6)CC5)CC4)cc3)c3ncnc(N)c23)cc1 [Compound I-42]	< 25
COc1ccc(F)cc1C(=O)NCc1ccc(-c2nn(-c3ccc(N4CCN(CC5CCN(c6ccc(N7CCC(=O)NC7=O)c(C)c6)CC5)CC4)nc3)c3ncnc(N)c23)c(F)c1F [Compound I-43]	< 50
COc1ccc(F)cc1C(=O)NCc1ccc(-c2nn(-c3ccc(C4CCN(CC5CCN(c6ccc(N7CCC(=O)NC7=O)c(C)c6)CC5)CC4)cc3)c3ncnc(N)c23)cc1F [Compound I-44, N-(4-(4-amino-1-(4-(1-((1-(4-(2,4-dioxotetrahydropyrimidin-1(2H)-yl)-3-methylphenyl)piperidin-4-yl)methyl)piperidinyl)phenyl)-1H-pyrazolo[3,4-d]pyrimidin-3-yl)-2-fluorobenzyl)-5-fluoro-2-methoxybenzamide]	< 25
COc1ccc(F)cc1C(=O)NCc1ccc(-c2nc(-c3ccc(N4CCN(CC5CCN(c6ccc(N7CCC(=O)NC7=O)c(C)c6)CC5)CC4)cc3)n3ccnc(N)c23)cc1F [Compound I-45]	< 50
COc1ccc(F)cc1C(=O)NCc1ccc(-c2nn(-c3ccc(N4CCN(CC5CCN(c6ccc(N7CCC(=O)NC7=O)c(C)c6)CC5)CC4)cc3)c3ccnc(N)c23)cc1 [Compound I-46]	< 100
COc1ccc(F)cc1C(=O)NCc1ccc(-c2nc(-c3ccc(N4CCN(CC5CCN(c6ccc(N7CCC(=O)NC7=O)c(C)c6)CC5)CC4)cc3)n3ccnc(N)c23)c(F)c1 [Compound I-47]	< 25
COc1ccc(F)cc1C(=O)NCc1ccc(-n2c(=O)n(-c3ccc(N4CCN(CC5CCN(c6ccc(N7CCC(=O)NC7=O)c(C)c6)CC5)CC4)cc3)c3ccnc(N)c32)cc1 [Compound I-48]	< 25
CCc1cc(-c2nc(-c3ccc(CNC(=O)c4cc(F)ccc4OC)cc3)c3c(N)nccn23)ccc1N1CCN(CC2CCN(c3ccc(N4CCC(=O)NC4=O)c(C)c3)CC2)CC1 [Compound I-49]	< 100
COc1ccc(F)cc1C(=O)NCc1ccc(-c2nc(-c3ccc(C4=CCN(CC5CCN(c6ccc(N7CCC(=O)NC7=O)c(C)c6)CC5)CC4)cc3)n3ccnc(N)c23)cc1 [Compound I-50]	< 25
COc1ccc(F)cc1C(=O)NCc1ccc(-c2nc(-c3ccc(N4CCN(CC5CCN(c6ccc(N7CCC(=O)NC7=O)c(C)c6)CC5)CC4)c(OC)c3)n3ccnc(N)c23)cc1 [Compound I-51]	< 25
COc1ccc(F)cc1C(=O)NCc1ccc(-n2c(=O)n(-c3ccc(N4CCN(CC5CCN(c6ccc(N7CCC(=O)NC7=O)c(C)c6)CC5)CC4)nc3)c3ccnc(N)c32)cc1 [Compound I-52, N-(4-(4-amino-1-(6-(4-((1-(4-(2,4-dioxotetrahydropyrimidin-1(2H)-yl)-3-methylphenyl)piperidin-4-yl)methyl)piperazin-1-yl)pyridin-3-yl)-2-oxo-1,2-dihydro-3H-imidazo[4,5-c]pyridin-3-yl)benzyl)-5-fluoro-2-methoxybenzamide]	< 50
COc1ccc(F)cc1C(=O)NCc1ccc(-c2nc(-c3ccc(N4CC5CC(C4)N5CC4CCN(c5ccc(N6CCC(=O)NC6=O)c(C)c5)CC4)cc3)n3ccnc(N)c23)cc1 [Compound I-53]	< 50
Cc1cc(N2CCC(CN3CCN(c4ccc(-c5nc(-c6ccc(Oc7ccccc7)cc6)c6c(N)nccn56)cn4)CC3)CC2)ccc1N1CCC(=O)NC1=O [Compound I-54, 1-(4-(4-((4-(5-(8-amino-1-(4-phenoxyphenyl)imidazo[1,5-a]pyrazin-3-yl)pyridin-2-yl)piperazin-1-yl)methyl)piperidin-1-yl)-2-methylphenyl)dihydropyrimidine-2,4(1H,3H)-dione]	< 50
Cc1cc(N2CCC(CN3CCN(c4ccc(-n5nc(-c6ccc(Oc7ccccc7)cc6)c6c(N)ncnc65)cc4)CC3)CC2)ccc1N1CCC(=O)NC1=O [Compound I-55]	< 100
COc1ccc(F)cc1C(=O)NCc1ccc(-c2nn(-c3ccc(N4CCN(CC5CCN(c6ccc7c(c6)CN(C6CCC(=O)NC6=O)C7=O)CC5)CC4)nc3)c3ncnc(N)c23)cc1 (stereo not drawn) [II-1]	4
COc1ccc(F)cc1C(=O)NCc1ccc(-c2nn(-c3ccc(N4CCN(CC5CCN(c6ccc7c(c6)CN(C6CCC(=O)NC6=O)C7=O)CC5)CC4)nc3)c3ncnc(N)c23)cc1C (stereo not drawn) [II-2, N-(4-(4-amino-1-(6-(4-((1-(2-(2,6-dioxopiperidin-3-yl)-1-oxoisoindolin-5-yl)piperidin-4-yl)methyl)piperazin-1-yl)pyridin-3-yl)-1H-pyrazolo[3,4-d]pyrimidin-3-yl)-2-methylbenzyl)-5-fluoro-2-methoxybenzamide]	17
COc1ccc(F)cc1C(=O)NCc1ccc(-c2nn(-c3ccc(N4CCN(CC5CCN(c6ccc7c(c6)C(=O)N(C6CCC(=O)NC6=O)C7=O)CC5)CC4)nc3)c3ncnc(N)c23)cc1 (stereo not drawn) [II-3, N-(4-4-amino-1-(6-(4-(1-(2,6-dioxopiperidin-3-yl)-1,3-dioxoisoindolin-5-ylpiperidin-4-yl)methylpiperazin-1-ylpyridin-3-yl)-1H-pyrazolo[3,4-d]pyrimidin-3-yl)benzyl)-5-fluoro-2-methoxybenzamide]	17
COc1ccc(F)cc1C(=O)NCc1ccc(-c2nn(-c3ccc(N4CCC(CN5CCN(c6ccc7c(c6)C(=O)N(C6CCC(=O)NC6=O)C7)CC5)CC4)nc3)c3ncnc(N)c23)cc1 (stereo not drawn) [II-4, N-(4-(4-amino-1-(6-(4-((4-(2-(2,6-dioxopiperidin-3-yl)-3-oxoisoindolin-5-yl)piperazin-1-yl)methyl)piperidin-1-yl)pyridin-3-yl)-1H-pyrazolo[3,4-d]pyrimidin-3-yl)benzyl)-5-fluoro-2-methoxybenzamide]	12
